In assay [1] the test system is BCL-2 RT template (RNA, G4) UAAUACGACUCACUAUAGGGCAUGCCAAGGGGGAAACACCAGAAUCAAGUGUUCCGCGUGAUUGAAGACACCCCCUCGUCCAAGAAUGCAAAGCACAUCCAGGGGGCCGUGGGGUGGGAGCUGGGGAUAAAAUAGCUGGAUUAUAACUCCUCUUCUUUCUCUCGAGAGGUGCCGUUGGCCCCCGUUGCUUUUCCUCUGGGAAGGAUG
Put plainly: reverse transcriptase stop assay, qPCR. To be noted: MgCl2 (concentration not stated), 10 µM compound, 100 nM template, 37°C.

Assay [2] deals with mut 1 (RNA, G4) GGAUGAGUGGGAGGAGG
The experiment in a line: SPR. The following applies: 100 mM KCl; 10 mM HEPES pH 7.4, 25°C; printed kd/ka gives 3.9e-3.

Assay [3] has as its system mut 2 (RNA, G4) UGAGGAGGGUGAGGAGG
Put plainly: SPR. The following applies: 100 mM KCl; 10 mM HEPES pH 7.4, 25°C; printed kd/ka gives 1.01e-2.

Assay [4] has as its system mut 3 (RNA, G4) GGAGGAGGGUGAGUAGG
Put plainly: SPR. The following applies: 100 mM KCl; 10 mM HEPES pH 7.4, 25°C; highest OMT 200 µM.

The test system of assay [5] is mut 4 (RNA, G4) UGAGGAGGGGGAGGAUG
Put plainly: SPR. The following applies: 100 mM KCl; 10 mM HEPES pH 7.4, 25°C; highest OMT 200 µM.

In assay [6] the test system is BCL-2 RNA G-quadruplex (SPR) (RNA, G4) GGGGGCCGUGGGGUGGGAGCUGGGG
The experiment in a line: SPR. The following applies: 100 mM KCl; 10 mM HEPES pH 7.4, 25°C; highest OMT 200 µM.

Assay [7] relates to NRAS RNA G-quadruplex (SPR) (RNA, G4) UGUGGGAGGGGCGGGUCUGGG
Put plainly: SPR. To be noted: 100 mM KCl; 10 mM HEPES pH 7.4, 25°C; highest OMT 200 µM.

Assay [8] concerns RNA G-quadruplex (VEGF), unlabelled (RNA, G4) GGAGGAGGGGGAGGAGG
The experiment in a line: ESI-MS. The following applies: 100 mM trimethylammonium acetate; 50% methanol; 10 µM RNA, 30 µM OMT.

Assay [9] has the same test system. The experiment in a line: CD melting. The following applies: 100 mM KCl/NaCl (so in the source); 10 mM Tris pH 7.4; 3:1 OMT/G-quadruplex; 10 µM RNA; Tm 72.7 to 76.3.
Assay [10] has as its system DNA double strand (DNA, duplex) GCGCGCGCGCGCGCGCGCGCGCGC
Put plainly: UV melting. The following applies: 100 mM KCl/NaCl (so in the source); 10 mM Tris pH 7.4.

Some results are limits rather than exact numbers.

In the case of `C[n+]1ccc(-c2c3nc(c(-c4cc[n+](C)cc4)c4ccc([nH]4)c(-c4cc[n+](C)cc4)c4nc(c(-c5cc[n+](C)cc5)c5ccc2[nH]5)C=C4)C=C3)cc1`, in [1] (not a binding constant), the ΔCt was > 2.
On to `O=C1CCC[C@@H]2[C@H]3CCC[N+]4([O-])CCC[C@@H](CN12)[C@@H]34` (some centres unmarked), for which the KD (usually the equilibrium constant for the complex coming apart) in [2] stood at 39 µM; in assay [3], 101 µM. Moreover, the binding entry is listed as “no” in [4]; “no” in assay [5]; “no” in assay [6]; “no” in assay [7]; “yes” in assay [8]; “no” in assay [10]. In addition, the binding result in assay [1] was “no”. Moreover, the ΔTm (in general, the shift of the melting midpoint relative to a reference) in [9] came to 3.6 °C.

Source of the values: article PMC8630693 (2021).
